Experimental findings from patent US11566007B2, “Ras inhibitors” (Revolution Medicines, Inc., priority 2019, dated 2023) are described below.

Experiment [1] concerns the target KRAS G12S (Homo sapiens (Human), UniProt P01116+P62937, G12S). Put plainly: Ras-Raf (BRAF RBD) disruption / FRET / MOA assay, KRAS G12S. The experiment is classed as biochemical. Conditions: Ras-Raf disruption/FRET/MOA assay; class symbols; read-out: KRAS G12S FRET data IC50. As for the experimental part:
(§1) The purpose of this biochemical assay is to measure the ability of test compounds to facilitate ternary complex formation between a nucleotide-loaded Ras isoform and cyclophilin A; the resulting ternary complex disrupts binding to a BRAF^RBD construct, inhibiting Ras signaling through a RAF effector.
(§2) Compound is present in plate wells as a 10-point 3-fold dilution series starting at a final concentration of 30 μM. After incubation at 25° C. for 3 hours, a mixture of Anti-His Eu-W1024 and anti-GST allophycocyanin is then added to assay sample wells at final concentrations of 10 nM and 50 nM, respectively, and the reaction incubated for an additional 1.5 hours. […] Compounds that facilitate disruption of a Ras:RAF complex are identified as those eliciting a decrease in the TR-FRET ratio relative to DMSO control wells.
(§3) This protocol may also be executed substituting other Ras proteins or nucleotides.
(§4) The purpose of this biochemical assay was to measure the ability of test compounds to facilitate ternary complex formation between a nucleotide-loaded K-Ras isoform and Cyclophilin A; the resulting ternary complex disrupts binding to a BRAF^RBD construct, inhibiting K-Ras signaling through a RAF effector. Data is reported as IC50 values.
(§5) Compound was present in plate wells as a 10-point 3-fold dilution series starting at a final concentration of 30 μM. After incubation at 25° C. for 3 hours, a mixture of Anti-His Eu-W1024 and anti-GST allophycocyanin was then added to assay sample wells at final concentrations of 10 nM and 50 nM, respectively, and the reaction incubated for an additional 1.5 hours. […] Compounds that facilitate disruption of a K-Ras:RAF complex were identified as those eliciting a decrease in the TR-FRET ratio relative to DMSO control wells.

For experiment [2], the target named is KRAS G12D (Homo sapiens (Human), UniProt P01116+P62937, G12D). As to the kind of experiment: Ras-Raf (BRAF RBD) disruption / FRET / MOA assay, KRAS G12D. The experiment is classed as biochemical. Conditions: Ras-Raf disruption/FRET/MOA assay; class symbols; read-out: KRAS G12D FRET data IC50. As to the method:
as §1, §2, §3, §4, §5

KRAS G12D, sequence (P01116-2 other isoform, or with tags, fused parts or gaps G12D): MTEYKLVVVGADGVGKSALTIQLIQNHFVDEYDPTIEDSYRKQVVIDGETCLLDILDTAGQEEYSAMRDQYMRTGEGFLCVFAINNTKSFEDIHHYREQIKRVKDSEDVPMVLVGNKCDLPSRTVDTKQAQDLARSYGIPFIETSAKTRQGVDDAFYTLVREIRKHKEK
KRAS G12D, sequence (P62937 whole entry): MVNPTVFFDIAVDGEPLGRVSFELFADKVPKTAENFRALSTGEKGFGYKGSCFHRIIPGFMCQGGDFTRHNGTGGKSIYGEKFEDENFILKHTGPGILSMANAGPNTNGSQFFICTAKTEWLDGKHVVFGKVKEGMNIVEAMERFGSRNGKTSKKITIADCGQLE
KRAS G12S, sequence (P01116-2 other isoform, or with tags, fused parts or gaps G12S): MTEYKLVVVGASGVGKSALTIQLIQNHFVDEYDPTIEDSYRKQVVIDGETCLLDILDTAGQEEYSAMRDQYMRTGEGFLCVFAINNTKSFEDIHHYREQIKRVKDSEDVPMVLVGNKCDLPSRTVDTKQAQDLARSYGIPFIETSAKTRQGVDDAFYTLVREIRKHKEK
KRAS G12S, sequence (P62937 whole entry, canonical isoform): as the sequence (P62937 whole entry) above

Take `CCn1c(-c2ccccc2COC)c2c3cc(ccc31)-c1cc(O)cc(c1)C[C@H](NC(=O)[C@H](C(C)C)N(C)C(=O)[C@H]1CCN(C(=O)/C=C/CN(C)C)C1)C(=O)N1CCC[C@H](N1)C(=O)OCC(C)(C)C2` [Example A079]: the IC50 in experiment [1] is 0.1 to 1 µM; in experiment [2], 1 to 10 µM.

For the compound `C=CC(=O)N1CC[C@H](C(=O)N(C)[C@H](C(=O)N[C@H]2Cc3cc(O)cc(c3)-c3ccc4c(c3)c(c(-c3cncc(CN(C)C)c3)n4CC)CC(C)(C)COC(=O)[C@@H]3CCCN(N3)C2=O)C(C)C)C1` [Example A073], the IC50 in experiment [1] was 1 to 10 µM; in experiment [2], greater than 10 µM.

As to `C=CC(=O)N1CC[C@H](C(=O)N(C)[C@H](C(=O)N[C@H]2Cc3cc(OC(=O)CN)cc(c3)-c3ccc4c(c3)c(c(-c3ccccc3CCOC)n4CC)CC(C)(C)COC(=O)[C@@H]3CCCN(N3)C2=O)C(C)C)C1` [Example A008], the IC50 in experiment [1] was 1 to 10 µM; in experiment [2], greater than 10 µM.

For `C=CC(=O)N1CC[C@H](C(=O)N(C)[C@H](C(=O)N[C@H]2Cc3cc(O)cc(c3)-c3ccc4c(c3)c(c(-c3ccc(C5CCN(C)CC5)nc3)n4CC)CC(C)(C)COC(=O)[C@@H]3CCCN(N3)C2=O)C(C)C)C1` [Example A098], the IC50 is 1 to 10 µM in experiment [1] and greater than 10 µM in experiment [2].

As for `C=CC(=O)N1CC[C@H](C(=O)N(C)[C@H](C(=O)N[C@H]2Cc3cc(O)cc(c3)-c3ccc4c(c3)c(c(-c3cc(F)cnc3COC)n4CC)CC(C)(C)COC(=O)[C@@H]3CCCN(N3)C2=O)C(C)C)C1` [Example A082], the IC50 in experiment [2] was in the range of 1 to 10 µM.

Consider `C=CC(=O)N1CC[C@H](C(=O)N(C)[C@H](C(=O)N[C@H]2Cc3cc(O)cc(c3)-c3ccc4c(c3)c(c(-c3ccccc3OC)n4CC)CC(C)(C)COC(=O)[C@@H]3CCCN(N3)C2=O)C(C)C)C1` [Example A017], for which the IC50 is 1 to 10 µM in experiment [1] and greater than 10 µM in experiment [2].

For `C=CC(=O)N1CC[C@H](C(=O)N(C)[C@H](C(=O)N[C@H]2Cc3cc(O)cc(c3)-c3ccc4c(c3)c(c(-c3ccc(C5CCN(C)CC5)cc3)n4CC)CC(C)(C)COC(=O)[C@@H]3CCCN(N3)C2=O)C(C)C)C1` [Example A039], the IC50 in experiment [1] and in experiment [2] was 1 to 10 µM throughout.

In the case of `C=CC(=O)N1CC[C@H](C(=O)N(C)[C@H](C(=O)N[C@H]2Cc3cc(O)cc(c3)-c3ccc4c(c3)c(c(-c3ccc(CC(=O)O)cc3)n4CC)CC(C)(C)COC(=O)[C@@H]3CCCN(N3)C2=O)C(C)C)C1` [Example A021], the IC50 in experiment [1] and in experiment [2] was greater than 10 µM each time.

Turning to `C=CC(=O)N1C[C@H](C)[C@H](C(=O)N(C)[C@H](C(=O)N[C@H]2Cc3cc(O)cc(c3)-c3ccc4c(c3)c(c(-c3ccccc3CCOC)n4CC)CC(C)(C)COC(=O)[C@@H]3CCCN(N3)C2=O)C(C)C)C1` [Example A041], the IC50 in experiment [1] is 0.1 to 1 µM; in experiment [2] it was greater than 10 µM.

With `C=CC(=O)N1CC[C@H](C(=O)N(C)[C@H](C(=O)N[C@H]2Cc3cc(OC(=O)CCC(=O)O)cc(c3)-c3ccc4c(c3)c(c(-c3ccccc3CCOC)n4CC)CC(C)(C)COC(=O)[C@@H]3CCCN(N3)C2=O)C(C)C)C1` [Example A032], in experiment [2], the IC50 is greater than 10 µM.

As to `C=CC(=O)N1CC[C@H](C(=O)N(C)[C@H](C(=O)N[C@H]2Cc3cc(O)cc(c3)-c3ccc4c(c3)c(c(-c3cnccc3COC)n4CC)CC(C)(C)COC(=O)[C@@H]3CCCN(N3)C2=O)C(C)C)C1` [Example A091], in experiment [2], the IC50 fell in the range of 1 to 10 µM.

For `C=CC(=O)N1CC[C@H](C(=O)N(C)[C@H](C(=O)N[C@H]2Cc3cc(O)cc(c3)-c3ccc4c(c3)c(c(-c3ccc(CN(C)C)cc3COC)n4CC)CC(C)(C)COC(=O)[C@@H]3CCCN(N3)C2=O)C(C)C)C1` [Example A051], the concentration for half-maximal inhibition (IC50) in experiment [1] fell in the range of 0.1 to 1 µM; in experiment [2], 1 to 10 µM.

As to `C=CC(=O)N1C[C@H](C)[C@H](C(=O)N(C)[C@H](C(=O)N[C@H]2Cc3cc(O)cc(c3)-c3ccc4c(c3)c(c(-c3cccnc3COC)n4CC)CC(C)(C)COC(=O)[C@@H]3CCCN(N3)C2=O)C(C)C)C1` [Example A056], the IC50 in experiment [1] fell in the range of 0.1 to 1 µM; in experiment [2], 1 to 10 µM.

For the compound `C=CC(=O)N1C[C@H](C)[C@H](C(=O)N(C)[C@H](C(=O)N[C@H]2Cc3cc(O)cc(c3)-c3ccc4c(c3)c(c(-c3ccccc3CN(C)C)n4CC)CC(C)(C)COC(=O)[C@@H]3CCCN(N3)C2=O)C(C)C)C1` [Example A052], the IC50 in experiment [1] was 0.1 to 1 µM; in experiment [2] it was 1 to 10 µM.

Turning to `C=CC(=O)N1CC[C@H](C(=O)N(C)[C@H](C(=O)N[C@H]2Cc3cc(O)cc(c3)-c3ccc4c(c3)c(c(-c3cccnc3COC)n4CC#N)CC(C)(C)COC(=O)[C@@H]3CCCN(N3)C2=O)C(C)C)C1` [Example A093], the IC50 in experiment [1] was 0.1 to 1 µM; in experiment [2] it was 1 to 10 µM.

Take `C=CC(=O)N1CC[C@H](C(=O)N(C)[C@H](C(=O)N[C@H]2Cc3cc(O)cc(c3)-c3ccc4c(c3)c(c(-c3cccc(CN(C)C)c3)n4CC)CC(C)(C)COC(=O)[C@@H]3CCCN(N3)C2=O)C(C)C)C1` [Example A030]: the values for the IC50 in experiment [1] and in experiment [2] were 1 to 10 µM and greater than 10 µM, respectively.

As to `CCn1c(-c2ccccc2CN(C)C)c2c3cc(ccc31)-c1cc(O)cc(c1)C[C@H](NC(=O)[C@H](C(C)C)N(C)C(=O)c1ccc(NC(=O)/C=C/CN(C)C)cc1)C(=O)N1CCC[C@H](N1)C(=O)OCC(C)(C)C2` [Example A049], the IC50 in experiment [1] and in experiment [2] was greater than 10 µM each time.

As for `C=CC(=O)N1CC[C@H](C(=O)N(C)[C@H](C(=O)N[C@H]2Cc3cc(cc(O)c3F)-c3ccc4c(c3)c(c(-c3ccccc3CCOC)n4CC)CC(C)(C)COC(=O)[C@@H]3CCCN(N3)C2=O)C(C)C)C1` [Example A009], the IC50 in experiment [1] and in experiment [2] was greater than 10 µM throughout.

As for `C=CC(=O)N1CC[C@H](C(=O)N(C)[C@H](C(=O)N[C@H]2Cc3cc(O)cc(c3)-c3ccc4c(c3)c(c(-c3ccc5c(c3)CCN(C)C5)n4CC)CC(C)(C)COC(=O)[C@@H]3CCCN(N3)C2=O)C(C)C)C1` [Example A040], the figures for the IC50 in experiment [1] and in experiment [2] were 1 to 10 µM and greater than 10 µM, respectively.

For the compound `C=CC(=O)N1CC[C@H](C(=O)N(C)[C@H](C(=O)N[C@H]2Cc3cc(O)cc(c3)-c3ccc4c(c3)c(c(-c3c(CCOC)cccc3OC)n4CC)CC(C)(C)COC(=O)[C@@H]3CCCN(N3)C2=O)C(C)C)C1` [Example A080], the half-maximal inhibitory concentration (IC50) in experiment [1] and in experiment [2] was greater than 10 µM in each case.

For the compound `C=CC(=O)N1CCCN(C(=O)N(C)[C@H](C(=O)N[C@H]2Cc3cc(O)cc(c3)-c3ccc4c(c3)c(c(-c3ccccc3CCOC)n4CC)CC(C)(C)COC(=O)[C@@H]3CCCN(N3)C2=O)C(C)C)CC1` [Example A013], the IC50 in experiment [1] was 1 to 10 µM; in experiment [2] it was greater than 10 µM.

`C=CC(=O)N1CC[C@H](C(=O)N(C)[C@H](C(=O)N[C@H]2Cc3cc(O)cc(c3)-c3ccc4c(c3)c(c(-c3cncc(C#N)c3)n4CC)CC(C)(C)COC(=O)[C@@H]3CCCN(N3)C2=O)C(C)C)C1` [Example A062]: the IC50 in experiment [2] was greater than 10 µM.

For the compound `C=CC(=O)N1CC[C@H](C(=O)N(C)[C@H](C(=O)N[C@H]2Cc3cc(O)cc(c3)-c3ccc4c(c3)c(c(-c3ccccc3CCOC)n4C(C)(C)C#N)CC(C)(C)COC(=O)[C@@H]3CCCN(N3)C2=O)C(C)C)C1` [Example A034], the IC50 in experiment [2] fell in the range of 1 to 10 µM.

In the case of `C=CC(=O)N1CC[C@H](C(=O)N(C)[C@H](C(=O)N[C@H]2Cc3cc(O)cc(c3)-c3ccc4c(c3)c(c(-c3nccnc3COC)n4CC)CC(C)(C)COC(=O)[C@@H]3CCCN(N3)C2=O)C(C)C)C1` [Example A085], the IC50 in experiment [1] and in experiment [2] was greater than 10 µM throughout.

For the compound `C=CC(=O)N1CC[C@H](C(=O)N(C)[C@H](C(=O)N[C@H]2Cc3cc(O)cc(c3)-c3ccc4c(c3)c(c(-c3cccnc3CN(C)C)n4CC)CC(C)(C)COC(=O)[C@@H]3CCCN(N3)C2=O)C(C)C)C1` [Example A092], the IC50 in experiment [1] was 1 to 10 µM; in experiment [2], greater than 10 µM.

For `C=CC(=O)N1CC[C@H](C(=O)N(C)[C@H](C(=O)N[C@H]2Cc3cc(O)cc(c3)-c3ccc4c(c3)c(c(-c3ccccc3[C@H](C)OC)n4CC)CC(C)(C)COC(=O)[C@@H]3CCCN(N3)C2=O)C(C)C)C1` [Example A022], the IC50 in experiment [1] fell in the range of 0.1 to 1 µM; in experiment [2] it was 1 to 10 µM.

Take `CCn1c(-c2cccnc2COC)c2c3cc(ccc31)-c1cc(O)cc(c1)C[C@H](NC(=O)[C@H](C(C)C)N(C)C(=O)[C@H]1CCN(C(=O)C#CCN(C)C)C1)C(=O)N1CCC[C@H](N1)C(=O)OCC(C)(C)C2` [Example A096]: in experiment [2], the IC50 fell in the range of 1 to 10 µM.

For the compound `C=CC(=O)N1CC[C@H](C(=O)N(C)[C@H](C(=O)N[C@H]2Cc3cc(O)cc(c3)-c3ccc4c(c3)c(c(-c3ccccc3CO)n4CC)CC(C)(C)COC(=O)[C@@H]3CCCN(N3)C2=O)C(C)C)C1` [Examples A004], in experiment [2], the IC50 was greater than 10 µM.

For `C=CC(=O)N1CC[C@H](C(=O)N(C)[C@H](C(=O)N[C@H]2Cc3cc(O)cc(c3)-c3ccc4c(c3)c(c(-c3cnccc3[C@H](C)OC)n4CC)CC(C)(C)COC(=O)[C@@H]3CCCN(N3)C2=O)C(C)C)C1` [Example A076], in experiment [2], the IC50 was 0.1 to 1 µM.

As usually defined, the IC50 is the midpoint of a concentration-inhibition curve.
